Measurements from publication PMC8501640, “Altered Env conformational dynamics as a mechanism of resistance to peptide-triazole HIV-1 inactivators” (Retrovirology, 2021).

Columns and labels:
[1] = target: HxBc2 gp120 WT monomer (Human immunodeficiency virus type 1 group M subtype B, UniProt P04578); experiment: Isothermal titration calorimetry, WT gp120; type: binding, HIV-1; settings: 25 °C
Method: (§1) Heats were obtained at 25 °C by injection of 8 μL of PT (100 μM) into a sample cell of a VP-ITC containing 1.4 mL recombinant HxBc2 gp120 (6–8 μM). Solid lines represent fits to a single site binding model.
(§2) The resulting heat changes upon injection were integrated over a time range of 240 s, and the obtained values were fit to a standard single site-binding model using Origin® software.

[2] = target: HxBc2 gp120 V255I monomer (Human immunodeficiency virus type 1 group M subtype B, UniProt P04578, V255I); experiment: Isothermal titration calorimetry, V255I gp120; type: binding, HIV-1
Method: as §1, §2

[3] = target: HxBc2 gp120 V255I/S143N monomer (Human immunodeficiency virus type 1 group M subtype B, UniProt P04578, S143N/V255I); experiment: Isothermal titration calorimetry, V255I/S143N gp120; type: binding, HIV-1; settings: 25 °C
Method: as §1, §2

[4] = target: HIV-1 HxBc2 gp120 WT monomer (Human immunodeficiency virus type 1 group M subtype B, UniProt P04578); experiment: Surface plasmon resonance, WT gp120; type: binding
Method: (§3) SPR experiments were performed on a Biacore 3000 biosensor (Global Cytiva Lifesciences) at 25 °C using PBS-P (10 mM Phosphate, 150 mM NaCl, pH 7.4, 0.005% P-20) as the running buffer. A CM5 sensor chip was docked and derivatized by amine coupling with HIV-1HxBc2 WT and mutant gp120 subunits using freshly prepared 1:1 50 mM NHS (N-hydroxysuccinamide):200 mM EDC (1-ethyl-3-(3-(dimethylamino)propyl) carbodiimide). […] The equilibrium dissociation constant was calculated as KD = k−1/k1.
(§4) Rate constants k1 and k-1 are defined as they are in the 1:1 binding model, while k2 and k-2 are first order rate constants describing isomerization and de-isomerization, respectively. Equations describing the time course of the interactions can be found in Additional file 1: Method S1. For the fit, it was assumed that the states Env·PT and Env·PT^∗ had the same SPR signal. Rate constants were determined using a least-squares gradient-step algorithm coded in Visual Basic and implemented through Microsoft Excel.

[5] = target: HIV-1 HxBc2 gp120 V255I monomer (Human immunodeficiency virus type 1 group M subtype B, UniProt P04578, V255I); experiment: Surface plasmon resonance, V255I gp120; type: binding
Method: as §3, §4

[6] = target: HIV-1 HxBc2 gp120 V255I/S143N monomer (Human immunodeficiency virus type 1 group M subtype B, UniProt P04578, S143N/V255I); experiment: Surface plasmon resonance, V255I/S143N gp120; type: binding
Method: as §3, §4

[7] = test system: CEM-GFP cells; experiment: WST-1 cytotoxicity assay; type: cell-based
Method: The cytotoxicity was determined on CEM-GFP cells via a colorimetric assay to measure the relative proliferation rates of cells in culture. […] After 18 h of incubation, the media containing compounds were discarded and treated with 10% (v/v) WST-1 (a tetrazolium salt) in fresh media for one hour at 37 °C. The cell viability was determined by measuring the absorbance at 450 nm using a Tecan Infinite F50 plate reader.
Figure S1. […] Data represent means and standard deviations of three independent experiments performed in triplicate.

[8] = test system: BaL.01 viruses; parameters: method as in PMID 24330857, PMID 26331669; settings: ref [16], [21], read-out: EC50 of induced gp120 shedding; cited from earlier work
[9] = de-isomerization, three-state model
[10] = isomerization, three-state model
[11] = V255I and V255I/S143N vs WT gp120

CC[C@H](C)[C@H](NC(=O)[C@@H](N)CCCNC(=N)N)C(=O)N[C@@H](CC(N)=O)C(=O)N[C@@H](CC(N)=O)C(=O)N[C@H](C(=O)N1CC(n2cc([C]34[CH]5[CH]6[CH]7[CH]3[Fe]6754389%10[CH]4[CH]3[CH]8[CH]9[CH]4%10)nn2)C[C@H]1C(=O)N[C@@H](Cc1c[nH]c2ccccc12)C(=O)N[C@@H](CO)C(=O)N[C@@H](CCC(=O)O)C(=O)N[C@@H](C)C(=O)N[C@@H](CCSC)C(=O)N[C@@H](CCSC)C(=O)NCCC(=O)N[C@@H](CCC(N)=O)C(=O)NCCC(=O)N[C@@H](CS)C(N)=O)[C@@H](C)CC (stereo partly drawn) [KR13]
ITC binding stoichiometry n [1]: 1.1 ± 0.01
ITC −TΔS [1]: 7.8 ± 3.0 kcal/mol
ITC binding stoichiometry n ([2]; V255I gp120 (HxBc2), 25 °C): 1.0 ± 0.04
ITC −TΔS ([2]; V255I gp120 (HxBc2), 25 °C): 2.9 ± 1.5 kcal/mol
absolute impact of V255I substitution on enthalpy (ΔH) and entropy (TΔS) ([2]; mutant vs wild type gp120, ITC): 5 to 7 kcal/mol
ITC binding stoichiometry n [3]: 1.1 ± 0.08
ITC −TΔS [3]: 1.9 ± 0.93 kcal/mol
SPR k1 ([4]; PT association): 2.9 (M^−1 s^−1) × 10^–5
SPR k-1 ([4]; PT dissociation): 9.6 (s^−1) × 10^3
SPR k-2 [4, 9]: 0.25 (s^−1) × 10^3
SPR k2 [4, 10]: 7.0 (s^−1) × 10^3
disruption of affinity by escape mutations, SPR [5, 11]: four to sixfold
effect of escape mutations on de-isomerization kinetics, SPR [5, 11]: three to fourfold
SPR k1 ([5]; V255I gp120, PT association): 2.3 (M^−1 s^−1) × 10^–5
SPR k-1 ([5]; V255I gp120, PT dissociation): 14 (s^−1) × 10^3
SPR k-2 ([5]; V255I gp120, de-isomerization, three-state model): 0.72 (s^−1) × 10^3
SPR k2 ([5]; V255I gp120, isomerization, three-state model): 8.4 (s^−1) × 10^3
SPR k1 ([6]; PT association): 2.8 (M^−1 s^−1) × 10^–5
SPR k-1 ([6]; PT dissociation): 18 (s^−1) × 10^3
SPR k-2 [6, 9]: 1.0 (s^−1) × 10^3
SPR k2 [6, 10]: 9.0 (s^−1) × 10^3
concentration above which cytotoxicity was noted ([7]; 18 h): above 25 μM
cells dying ([7]; at a concentration of 125 μM): ~ 30%
EC50 [8]: 32 nM
